# PMC7707092, “Discovery and characterization of ORM‐11372, a novel inhibitor of the sodium‐calcium exchanger with positive inotropic activity” (British Journal of Pharmacology, 2020)
# Where “and” joins values, the source holds several entries; their conditions need not be identical. Equal entries are not always repeated. Where two headings read alike, the source gives them in different places.
# Assays:
# [1] = target: T1, human NCX 1.1 current (I NCX) (Homo sapiens, UniProt P32418); assay: NCX current (I NCX), whole‐cell patch‐clamp in hiPSC‐derived cardiomyocytes; assay type: cell-based; settings: hiPSC‐CMs, 35–37°C
# T1 construct: Cor.4U cells express cardiac proteins including NCX1; host or cells: Cor.4U hiPSC-derived cardiomyocytes
# Excerpt: Human‐induced pluripotent stem cell (hiPSC)‐derived CMs (Cor.4U CMs; RRID:CVCL_Y550) were thawed, seeded onto gelatine‐coated coverslips, and maintained, as described in the manufacturer's protocol.
# Manual patch‐clamp recordings of membrane currents (I NCX, L‐type Ca^2+ channel current [I CaL], human cardiac sodium 1.5 current [I Na], and I hERG) were undertaken using either an Axopatch 200B or Axopatch ID amplifier (Molecular Devices, USA), using the whole‐cell configuration. […]
# The measurement of current in the K^+‐free bath solution using a ramp voltage protocol at 20‐s intervals represented the first control, after which values were measured in the presence of one or more increasing concentrations of ORM‐11372 and finally upon exposure to 10‐mM NiCl2. […] Therefore, to enhance the inward current and enable a solution with a certain concentration of ORM‐11372 to be measured, the concentrations of the K^+‐free and pipette solutions were altered. […] The outward human I NCX inhibition current was measured at the following ORM‐11372 concentrations: 3 (n = 4), 10 (n = 6), 30 (n = 4), and 100 (n = 3) nM. […] The outward I NCX current in rat CMs was measured at concentrations ranging from 1 to 1,000 nM (n = 5). The inward I NCX current in rats was measured in additional experiments under changed conditions, to enhance the inward I NCX current. […]
# [2] = target: 5‐HT2B receptor (Homo sapiens, UniProt P41595); assay: 5‐HT2B agonist and antagonist assay, intracellular calcium in CHO–5‐HT2B cells; assay type: cell-based
# Excerpt: The hERG‐encoded voltage‐dependent potassium channel current (I hERG) cells to be studied were harvested with Detachin solution and either diluted with a volume of CHO cell serum‐free media (supplemented with 100 IU·ml^−1 of penicillin/streptomycin and 25‐mM HEPES) to obtain cells, for which the cell density was ~4 x10^6 cells·ml^−1, or plated on glass coverslips and used on the following 1–2 days. HEK 293 cells were transiently transfected using lipofectamine (Invitrogen, USA), with a human sodium voltage‐gated channel subunit 5 (hSCN5) A (transcript variant 2)‐containing plasmid, in Optimem medium. After a 5‐h incubation period, the transfection medium was replaced with the normal growth medium. The cells were harvested by trypsinization, centrifuged and resuspended in the appropriate extracellular solution for performing studies the next day. CHO–5‐HT2B cells were plated into 96‐well plates on the previous day, at a density of 4 x10^4 cells per well, with a modified version of the growth media.
# Changes in the intracellular calcium concentration of CHO–5‐HT2B cells in the probenecid‐R inger were measured, using Fluo‐4 or calcium 3 dyes and the FLEXstation, at 37°C. […]
# Sequence of 5‐HT2B receptor (P41595 whole entry): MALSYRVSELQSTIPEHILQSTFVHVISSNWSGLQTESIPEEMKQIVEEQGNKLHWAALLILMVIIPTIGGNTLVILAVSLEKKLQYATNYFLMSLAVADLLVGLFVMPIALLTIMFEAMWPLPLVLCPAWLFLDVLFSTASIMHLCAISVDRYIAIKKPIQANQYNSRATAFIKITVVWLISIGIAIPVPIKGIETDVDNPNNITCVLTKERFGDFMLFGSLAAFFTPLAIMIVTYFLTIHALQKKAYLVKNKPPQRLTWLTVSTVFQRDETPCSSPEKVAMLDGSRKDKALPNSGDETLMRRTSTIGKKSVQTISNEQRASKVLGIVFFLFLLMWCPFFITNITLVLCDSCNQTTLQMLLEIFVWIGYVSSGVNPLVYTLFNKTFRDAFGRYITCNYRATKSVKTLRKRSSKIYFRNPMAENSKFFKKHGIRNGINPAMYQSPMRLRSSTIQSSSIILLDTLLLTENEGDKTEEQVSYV
compound,measurement,setting,value
Nc1cccc(-c2ccc(CNc3ccc(F)cc3)o2)c1 [ORM‐11372],IC50,"[1]; Ni^2+‐sensitive current at +60 mV, read-out: IC50 outward (reverse) I NCX",4.8 nM and 5 nM
same,IC50,"[1]; Ni^2+‐sensitive current at −100 mV, read-out: IC50 inward (forward) I NCX",5.6 nM and 6 nM
same,agonist activity at 5‐HT2B receptors,[2],no agonist activity
same,inhibition at 10 µM,"[2]; 10 μM, evoked by 10‐nM 5‐HT, read-out: inhibition of 5‐HT2B receptor‐mediated increase in intracellular calcium",38%
